# Assays:
# [1] = in vivo
# Procedure: (§1) Prairie dog PK studies were performed at Centers for Disease Control and Prevention (CDC, Atlanta). […] The animals were collected in Lubbock, TX. All animals are given full physical examination by a veterinarian prior to being shipped to CDC. […] For each blood sample collection, prairie dogs were anesthetized with 5% isoflurane gas and maintained with 1–3% isoflurane during sample collection through peripheral veins. Plasma was prepared and stored at -70 °C until bioanalysis.
# (§2) Sample preparation and bioanalysis was performed at the University of Cincinnati. For extraction, 50 μl of plasma samples were transferred to glass tubes. […] The extraction solvent was separated by centrifugation. […] Collected fractions were evaporated using centrifugal evaporator.
# (§3) Analysis of extracted samples was performed by an LC-MS/MS method. […] The column was Synergi™ 4 μm Polar-RP 50 × 2.00 mm (Phenomenex) run at a flow rate of 400 μl/min with an injection volume of 5 μl (partial loop). […] The analysis was performed using a Thermo Scientific LTQ-FT™ mass spectrometer operated in positive-ion electrospray mode.
# (§4) Pharmacokinetic analysis was performed on either mean plasma concentration-time data (mouse) or on the individual plasma concentration-time data (prairie dog, guinea pig, and monkey) employing Phoenix® WinNonlin 6.4®. PK parameters such as maximum plasma concentration (Cmax), the time corresponding to Cmax (Tmax), terminal half-life (T1/2), the volume of distribution (Vd) and clearance (CL) were calculated by non-compartmental methods and presented as the arithmetic mean ± standard deviation (SD). The bioavailability (F) was estimated by dividing the mean dose-normalized area under the plasma concentration-time curve from time 0 extrapolated to infinity (AUCinf) upon oral dose by the mean dose-normalized AUCinf upon intravenous dose.
# [2] = in vivo; remark: listed apart in the source
# Procedure: PK studies in animals were approved by the Institutional Animal Care and Use Committee (IACUC) of the institution performing the study. […] Twenty-four animals were used for each route of administration and both the genders were randomly included (n = 3 mice per time point). The intravenous dose was administered via tail vein injection at an injection volume of 5 ml/kg, and the oral dose was given via gavage at a dose volume of 10 ml/kg. […] Mice were sacrificed with carbon dioxide asphyxiation following bleeds. Plasma was prepared and stored at -80 °C until bioanalysis.
# as §2, §3, §4
# [3] = in vivo; remark: listed apart in the source
# Procedure: Six Animals (3.5 kg) were procured from Charles River, three (n = 3) for each route of administration. Animals were fasted overnight before dosing and at least 1 h following dose administration. The intravenous dose was given via a saphenous vein at an injection volume of 1 ml/kg, and oral dosing was performed via gavage at a dose volume of 5 ml/kg. […] Plasma was prepared and stored at-70 °C until bioanalysis.
# as §2, §3, §4
# [4] = tested on: plasma protein; conditions: nilotinib, all the preclinical species and humans; cited from earlier work
# [5] = in vivo; conditions: male, Hartley, guinea pig, iv, 10 mg/kg
# Procedure: Male Hartley guinea pigs (450–650 g) were procured from Charles River. Nine animals were used, three (n = 3) for each route of administration. The intravenous dose was given via jugular vein cannula, and the oral dose was given via gavage. […] Plasma was prepared and stored at -80 °C until bioanalysis.
# as §2, §3, §4
# [6] = prairie dogs
# Procedure: as §1
# The formulation used in previously reported PK studies have varied based on the animal model. […] For their intravenous PK study in dogs, Solutol® HS 15 was used instead of cremophor [13].
# [7] = nilotinib, cited from earlier work
# [8] = nilotinib, 7 mg twice-daily, 20 mg once-daily, 20 mg twice-daily for 7 days, prairie dogs
# Procedure: as §1
# [9] = nilotinib; cited from earlier work
# [10] = male, dog, in vivo, iv, 10 mg/kg
# [11] = male, dog, in vivo, po, 30 mg/kg
# [12] = both, C57BL/6, mouse, in vivo, iv, 10 mg/kg
# [13] = both, C57BL/6, mouse, in vivo, po, 10 mg/kg
# [14] = cynomolgus monkey, in vivo, iv, 10 mg/kg
# [15] = cynomolgus monkey, in vivo, po, 10 mg/kg
# [16] = male, dog, in vivo, po, 10 mg/kg
# [17] = male, dog, in vivo, po, 20 mg/kg
# [18] = nilotinib, IV 10 mg/kg, prairie dogs, mean ± SD
smiles,measurement,setting,value
Cc1ccc(NC(=O)c2ccc(CN3CCN(C)CC3)cc2)cc1Nc1nccc(-c2cccnc2)n1 [imatinib],bioavailability,"[1]; male, dog, in vivo",~22%
same,AUC(0-inf),[1]; [10],12600 ng·h/mL
same,AUC(0-inf),[1]; [11],8090 ± 3010 ng·h/mL
same,Cmax,[1]; [11],1680 ± 834 ng/mL
same,Tmax,[1]; [11],3 ± 1.15 h
same,AUC(0-inf),[2]; [12],4520 ng·h/mL
same,AUC(0-inf),[2]; [13],4850 ng·h/mL
same,Tmax,[2]; [13],1 h
same,Cmax,[2]; [13],1470 ng/mL
Cc1cn(-c2cc(NC(=O)c3ccc(C)c(Nc4nccc(-c5cccnc5)n4)c3)cc(C(F)(F)F)c2)cn1 [nilotinib],AUC(0-inf),[3]; [14],16100 ng·h/mL
same,MRT,[3]; [14],8.9 ± 1.1 h
same,Vd,[3]; [14],5.74 ± 1.78 L/kg
same,clearance,[3]; [14],10.7 mL/min/kg
same,half-life,"[3]; cynomolgus monkey, in vivo, iv, 10 mg/kg, T1/2, nilotinib, IV 10 mg/kg, Cynomolgus monkeys, mean ± SD",7.8 h
same,AUC(0-inf),[3]; [15],2100 ± 468 ng·h/mL
same,Cmax,[3]; [15],410 ± 46 ng/mL
same,Tmax,[3]; [15],1.67 ± 0.58 h
same,bioavailability,[3]; [15],13%
same,half-life,"[3]; cynomolgus monkey, in vivo, po, 10 mg/kg, Apparent T1/2, nilotinib, oral 10 mg/kg in Avicel/HPMC, Cynomolgus monkeys, mean ± SD",5.2 h
same,T1/2,"[3]; nilotinib, IV 10 mg/kg, Cynomolgus monkeys, mean ± SD",7.79 ± 0.71 h
same,Apparent T1/2,"[3]; nilotinib, oral 10 mg/kg in Avicel/HPMC, Cynomolgus monkeys, mean ± SD",5.16 ± 0.52 h
same,Protein binding,[4],greater than 97%
same,Vd,[5],37.6 L/kg
same,clearance,[5],198 mL/min/kg
same,half-life,[5],2.1 h
same,Tolerability in multi-dose studies,"[6]; nilotinib/NMP (20 mg/ml) in PEG 300 (1:10), oral, weight loss, severe diarrhea, elevated liver enzymes also in vehicle-treated animals, data not shown",not tolerated
same,Tolerability in multiple dose PK studies,[6]; oral suspension of Avicel-RC 591 and HPMC,tolerable
same,bioavailability,"[1]; male, dog, in vivo, nilotinib, oral 20 mg/kg in NMP/PEG 300 vs IV 10 mg/kg, prairie dogs",~24%
same,AUC(0-inf),[1]; [10],57600 ng·h/mL
same,MRT,[1]; [10],6.7 ± 2.9 h
same,Vd,[1]; [10],1.16 ± 0.326 L/kg
same,clearance,[1]; [10],3.17 mL/min/kg
same,half-life,"[1]; male, dog, in vivo, iv, 10 mg/kg, T1/2, nilotinib, IV 10 mg/kg, prairie dogs, mean ± SD",6.5 h
same,AUC(0-inf),[1]; [16],9330 ± 3630 ng·h/mL
same,Cmax,[1]; [16],951 ± 255 ng/mL
same,Tmax,[1]; [16],5.6 ± 2.19 h
same,half-life,"[1]; male, dog, in vivo, po, 10 mg/kg, Apparent T1/2, nilotinib, oral 10 mg/kg in Avicel/HPMC suspension, prairie dogs, mean ± SD",3.5 ± 0.6 h
same,bioavailability,"[1]; male, dog, in vivo, po, 10 mg/kg, nilotinib, oral 10 mg/kg in Avicel/HPMC suspension vs IV 10 mg/kg, prairie dogs",16%
same,AUC(0-inf),[1]; [17],28000 ng·h/mL
same,Cmax,[1]; [17],1670 ± 315 ng/mL
same,Tmax,[1]; [17],7.2 ± 1.79 h
same,half-life,"[1]; male, dog, in vivo, po, 20 mg/kg, Apparent T1/2, nilotinib, oral 20 mg/kg in NMP/PEG 300, prairie dogs, mean ± SD",7.5 h
same,bioavailability,"[1]; male, dog, in vivo, po, 20 mg/kg, nilotinib, oral 20 mg/kg in NMP/PEG 300 vs IV 10 mg/kg, prairie dogs",24%
same,AUC(0-inf),[1]; [18],"57,551 ± 15,508 ng.hr./ml"
same,CL,[1]; [18],3.17 ± 1.28 mL/min/kg
same,T1/2,"[1]; nilotinib, IV 10 mg/kg, prairie dogs, mean ± SD, 10 mg/kg",6.51 ± 2.97 h
same,Apparent T1/2,"[1]; nilotinib, oral 20 mg/kg in NMP/PEG 300, prairie dogs, mean ± SD, 20 mg/kg",7.57 ± 2.01 h
same,Solubility in an acidic environment,[7]; acidic environment,soluble
same,Solubility at pH above 4.5,[7]; pH above 4.5,poorly soluble
same,Water solubility,[7],low
same,Deviation of predicted peak and trough levels on Days 1 and 7 from reported levels,[8],≤ 25%
same,Biopharmaceutics Classification System class,[9],class II/IV
same,Permeability,[9],poor to moderate
same,AUC(0-inf),[2]; [12],76300 ng·h/mL
same,MRT,[2]; [12],2.21 h
same,Vd,[2]; [12],0.29 L/kg
same,clearance,[2]; [12],2.19 mL/min/kg
same,half-life,[2]; [12],1.81 h
same,AUC(0-inf),[2]; [13],38400 ng·h/mL
same,Tmax,[2]; [13],0.5 h
same,half-life,[2]; [13],2.94 h
same,bioavailability,"[2]; both, C57BL/6, mouse, in vivo, po, 10 mg/kg, Bioavailability, nilotinib, oral 10 mg/kg in NMP/PEG 300 vs IV 10 mg/kg, C57BL/6 mice",50%
same,Cmax,"[2]; both, C57BL/6, mouse, in vivo, po, 10 mg/kg, nilotinib, oral 10 mg/kg in NMP/PEG 300, C57BL/6 mice",18000 ng/mL
same,Cmax,"[2]; both, C57BL/6, mouse, in vivo, po, 10 mg/kg, nilotinib, oral 10 mg/kg, C57BL/6 mice",~18000 ng/mL
same,Time to Cmax after dosing,"[2]; nilotinib, oral 10 mg/kg, C57BL/6 mice",30 min
